# Assays:
# MLC-P in MLL cells = experiment: MLC-P by urea/glycerol gel-immunoblotting in MLL cells; type: cell-based, rat; settings: 5 μM ML-7, 30 μM etoposide or both
# Description: (§1) MLC-P expression was measured in the cells using urea/glycerol gel-immunoblotting as follows. […] The unphosphoryiated and phosphorylated forms of MLC20 were separated using urea/glycerol PAGE, transferred to nitrocellulose and probed with an affinity purified antibody to MLC20. This antibody recognizes the unphosphoryiated and phosphorylated forms of MLC20. Immunoreactive bands were visualized using enhanced chemiluminescence (ECL) detection reagents (Amersham Pharmacia Biotech, Piscataway, N.J.) (Fazal et al., 2005, Mol Cell Biol 25:6259-66).
# To determine if ML-7 stimulates the ability of etoposide to induce apoptosis and retard tumor growth widely, the effects of ML-7 and etoposide on MLL prostate cancer cells were determined. In this case, pre-treated MLL cells were grown in culture with 5 μM ML-7 before adding varying concentrations of etoposide from 1 to 1000 μlM.
# [1] = test system: MLL rat prostate cancer cells; experiment: Apoptosis by FACS (annexin V and PI) in MLL cells; type: cell-based
# Description: (§2) Mm5MT or MLL cells (200,000 cells per well) were seeded in 6-well dishes one day before drug treatment and cultured as described above.
# (§3) On the day of the experiment, media was changed to DMEM supplemented with 0.5% FBS and the cells were treated with drugs as defined by the specific experimental protocol. […] At least 10,000 cells were counted per analysis and cells that stained positive for annexin V and PI were judged to be apoptotic.
# MLC-P in Mm5MT cells = experiment: MLC-P by urea/glycerol gel-immunoblotting in Mm5MT cells; type: cell-based, mouse; settings: 10 μM ML-7, 30 μM etoposide or both, 16 hours
# Description: as §1
# [2] = test system: precancerous mammary alveolar lesions (MAL); experiment: Mouse mammary gland organ culture, DMBA-induced mammary alveolar lesions (MAL); type: cell-based
# Description: To determine the effects of inhibiting MLCK in mammary tumors, an in vitro mammary cancer model was used as follows. Mammary glands obtained from young Balb/c mice that are exposed to 7,12-dimethylbenz(a)anhracene (DMBA) for 24 hours in culture form precancerous lesions in 24 days (Mehta et al., 2000, J Natl Cancer Instit 92:418-23). In this experiment, 70 mammary glands from 35 Balb/c mice were divided into seven groups of 10 glands each and incubated in serum-free medium containing insulin, prolactin (5 μg/ml each), aldosterone and hydrocortisone (1 μg/ml each) for 10 days. DMBA (2 μg/ml) was included in the medium for 24 hours on day 3. The glands were incubated for an additional 14 days in the absence of hormones except insulin. This allows the regression of the normal mammary alveolar structures. […] Chemopreventive agents were included in the medium during the first 10 days. The glands were fixed in formalin and stained with alum carmine and evaluated for MAL. Percent inhibition was calculated by comparing the incidence in the control glands with the treated groups.
# MLL prostate tumors = MLL prostate tumors in Copenhagen rats; type: in vivo, rat; settings: for TUNEL positive nuclei in tumors: 300 cells from randomly chosen fields, control 19.2%
# Description: To test the anticancer effect of ML-7 in a rat prostate cancer model as follows. MLL cells grown in culture as described above were harvested and washed in serum-free Hank's buffer. The cells were suspended in 500 μl serum-free Hank's and 10^6 cells were injected subcutaneously into the right flank of 12-week old male Copenhagen rats anesthetized with ether. […] The rats were randomly divided into four groups, five in each group. The rats received injections of ML-7 or vehicle via the jugular vein every 4 days for 2 weeks. ML-7 was used at the dose of 35 mg/kg. Etoposide was injected intraperitoneal injection (IP) at the maximum tolerant dose of 50 mg/m^2 daily (Muenchen et al., 2000, Anticancer Res 20:735-40), The rats were sacrificed with ether 14 days after the start of drug treatment. The tumors were removed, weighed and processed as described above.
# Tumor sections were also examined for apotosis using TUNEL staining Sections were deparaffinized and rehydrated according to standard protocol. Tissue sections were permeabilized by placing slides in 10 mM citrate buffer (pH 6.0) and applying 350W microwave irradiation for 5 min. Tissue sections were then stained with TMR Red-labelled terminal deoxynucleotidyl transferase dUTP nick-end labeling (TUNEL) enzyme reagent using the In Situ Cell Death Detection kit (Roche Molecular Biochemicals, Indianapolis, Ind.) as described by the manufacturer. Sections stained with the labeling solution without the terminal transferase were used as negative control. Tissue sections were finally mounted using Vectashield containing DAPI and examined using a Zeiss LSM 510 laser confocal microscope.
# Mm5MT mammary tumors = settings: for tumor growth (in words): mice, 27 mM ML-7 osmotic pump or 25 mg/kg etoposide i.p., 4 weeks, only the etoposide effect statistically significant; for tolerability on physical examination: mouse, in vivo
# Description: To investigate the anticancer activity of ML-7 in vivo, Mm5MT cells were injected into the right flanks of female mice as follows. Mm5MT cells grown in culture were harvested immediately before injection into syngeneic MMTV-C3H/HeM mice. Cells were washed to remove serum and 10^6 cells were resuspended in 100 μl of serum-free DMEM. Healthy, MMTV-free female mice (14-20 weeks old) were anesthetized with ether and 10^6 cells were injected subcutaneously into the right flank. The mice were randomly divided into four groups of five mice, each, and treated with vehicle, ML-7, etoposide or ML-7 plus etoposide. Drug administration was started 1 week after the cells were injected. To deliver ML-7, a small horizontal incision was made in the interscapular area and a 200 μl osmotic pump (Alzet, Cupertino, Calif.) filled with either 27 mM ML-7 in 50% DMSO or 50% DMSO (vehicle control) was implanted and the wound closed. […] When given, 25 mg/kg etoposide was injected intraperitoneally on the first 3 days of every week for 4 weeks (days 7-9, 14-16, 21-23 and 28-30) (Nakamura el al 2003, Cancer Sci 94:119-24). The mice were sacrificed with ether after 4 weeks of drug administration and tumors were removed, weighed and processed for analysis.
# Histological analysis of the tumors was conducted as follows. The excised tumours were gently patted dry and weighed using a Mettler digital balance. Tumors were then sectioned into 2 mm slices, fixed in 10% neutral buffered formalin, routinely processed and embedded in paraffin. […] Photomicrographs documenting the entire section were collected and areas of necrotic and viable tumor were determined using the manual tracing tools within MetaMorph 6.2 (Universal Imaging Corporation, Downingtown, Pa.).
# SHR = experiment: Systolic blood pressure (tail-cuff) in SHR, drug given continuously for 3 weeks by osmotic pump; type: in vivo, rat; settings: SHR 16 weeks old at start; osmotic pump, continuous 3 weeks; vehicle 221.6
# Description: The importance of regulating MLCK expression by Ras signaling in vivo was further investigated by treating SHR with U0126 continuously for 3 weeks. U0126 is a specific inhibitor MEK (Favata et al., 1998J. Biol. Chem. 273: 18623-18632), an upstream regulator of ERK in the Ras signaling pathway (Chien & Hoshijima, 2002, Id.). […] In these experiments, Systolic blood pressure (SBP) was measured using tail-cuff sphygmomanometry (IITC Incorporated/Life Sciences Institute, Woodland Hills Calif.). Drugs were delivered via an osmotic pump (DURECT Corporation, Cupertino, Calif.) implanted subcutaneously in the shoulder. The pumps (having a 2 mL capacity at a delivery rate of 2.45 μL/hour) were filled with 13.5 mM U0126 (BIOMOL Research Laboratories, Plymouth Meeting, Pa.) dissolved in 50% DMSO or vehicle alone. Three weeks later, rats were sacrificed and aortas were removed. Some vessels were processed for histology, while other tissue was immediately placed in ice-cold acetone containing 10% trichloroacetic acid (TCA) and 10 mM dithiothreitol (DTT). Endothelial cells were removed by gently rubbing the inside of the vessels with a cell lifter and connective tissue was removed by dissection. The cleaned vessels were then frozen on dry ice and stored at −80° C. for biochemical analysis.
# Another experiment was conducted to determine if inhibiting Ras signaling could decrease blood pressure in SHR.
# smooth muscle cells = settings: cited from earlier work
# [3] = test system: Mm5MT mouse mammary cancer cells; experiment: Apoptosis by FACS (annexin V and PI) in Mm5MT cells; type: cell-based
# Description: as §2, §3
# The cells were then treated with trypsin, washed twice with cold PBS and re-suspended in 100 μl of buffer containing 10 mM Hepes, pH 7.4, 140 mM NaCl and 2.5 mM CaCl2 (binding buffer). Then, 5 μl of FITC-conjugated annexin V (Pharmingen, San Diego, Calif.) and 10 μl of propidium iodide (PI) (50 μg/ml) were added and cells were incubated in the dark at room temperature for 15 min.
SMILES,MLC-P (MLC-P in MLL cells),"EC50 ([1]; Rattus norvegicus, with ML-7 (5 μM pretreatment), read-out: concentration of etoposide required for inducing apoptosis in 50% of the cells) [µM]",MLC-P (MLC-P in Mm5MT cells),"inhibition of MAL development ([2]; 0.1 μM, compared to control)","inhibition of the incidence of lesion formation ([2]; 1 and 10 μM, compared to control)",TUNEL positive nuclei in tumors (MLL prostate tumors),tumor growth (in words) (Mm5MT mammary tumors),tolerability on physical examination (Mm5MT mammary tumors),systolic blood pressure at the end of the 3-week treatment period (SHR) [mmHg],"apoptotic cells (annexin V and PI positive) ([1]; 5-25 μM ML-7, 16 h)",apoptosis in smooth muscle cells (smooth muscle cells),"inhibition of MAL development ([2]; 1 μM, compared to a 70% incidence in the control glands) [%]","apoptosis by ML-7 by itself ([3]; 10 μM ML-7, 0 etoposide)","apoptotic cells (annexin V and PI positive) ([3]; 5-25 μM ML-7, 16 h)","decrease in tumor weight (MLL prostate tumors; Copenhagen rats, ML-7 35 mg/kg every 4 days, etoposide 50 mg/m^2 daily IP, 14 days, vs. vehicle control) [%]"
COc1cc([C@@H]2c3cc4c(cc3[C@@H](O[C@@H]3O[C@@H]5CO[C@@H](C)O[C@H]5[C@H](O)[C@H]3O)[C@H]3COC(=O)[C@H]23)OCO4)cc(OC)c1O [etoposide],smaller decrease,68,decreased,did not affect,40-46%,35.8%,decreased,tolerated these drugs without visible signs of discomfort,,,,,,,
O=S(=O)(c1cccc2c(I)cccc12)N1CCCNCC1 [ML-7],decreased,,decreased,40%,,"40,6%",decreased,tolerated these drugs without visible signs of discomfort,165.0±3.9,dose-dependent increase,induces apoptosis,58,significantly increased,dose-dependent increase,29.6

# From US20090054328A1, “Reagents and Methods for Modulating Gene Expression Related to Hypertension” (The Board of Trustees of the University of Illinois, priority 2005, published 2009)
